The values that follow come from patent US20230000885A1, “Methods of Treating Psychological and Brain Disorders” (University of Maryland, Baltimore, priority 2019, published 2023).

Structures are written as SMILES. Entries after “also recorded” stand apart in the source; their conditions may differ.

Assay [1] concerns the target 5-HTRs. The following applies: read-out: affinities at almost all 5-HTRs; cited from earlier work.
Assay [2] has as its target 5-HT1BRs (Homo sapiens, UniProt P28222). The following applies: cited from earlier work.
Assay [3] deals with male C57BI/6J mice. The assay is described as follows: female urine sniff test (FUST) after chronic multimodal stress. Type of assay: in vivo. To be noted: stress-susceptible CMMS mice; ketanserin 2 mg/kg alone; vs values after CMMS.
Assay [4] concerns male C57BI/6J mice. The assay is described as follows: sucrose preference test (SPT) after chronic multimodal stress (CMMS). Type of assay: in vivo. The following applies: stress-susceptible CMMS mice; ketanserin 2 mg/kg alone (ketanserin-vehicle); vs values after CMMS.
Assay [5] relates to male C57BI/6J mice. The assay is described as follows: locomotion (video, Any-maze) after injection. It is filed as in vivo. To be noted: ketanserin 2 mg/kg pretreatment, recorded 90 minutes after second injection, with or without psilocybin.
The test system of assay [6] is 5-HT2Rs. To be noted: cited from earlier work.

Chain of 5-HT1BRs (P28222 whole entry): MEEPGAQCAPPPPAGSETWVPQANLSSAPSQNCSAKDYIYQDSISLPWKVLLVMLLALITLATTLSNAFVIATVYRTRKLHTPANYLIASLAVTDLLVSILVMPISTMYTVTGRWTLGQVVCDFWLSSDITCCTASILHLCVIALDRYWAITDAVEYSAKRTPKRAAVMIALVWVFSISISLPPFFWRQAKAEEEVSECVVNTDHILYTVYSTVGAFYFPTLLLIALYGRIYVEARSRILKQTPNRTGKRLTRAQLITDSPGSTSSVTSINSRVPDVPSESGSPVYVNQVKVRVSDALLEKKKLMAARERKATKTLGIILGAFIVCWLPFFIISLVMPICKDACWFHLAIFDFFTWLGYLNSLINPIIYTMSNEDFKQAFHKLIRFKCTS

Consider `CN(C)CCc1c[nH]c2cccc(O)c12` [Psilocin], for which the Ki in assay [1] was 3 to 500 nM. Besides, the “affinity for 5-HT1BRs” value in assay [2] is “high affinity”.

For `O=C(c1ccc(F)cc1)C1CCN(CCn2c(=O)[nH]c3ccccc3c2=O)CC1` [ketanserin, Ketanserin], the “preference for female urine” value in assay [3] was “nor ketanserin alone (p=0.072; n=4) had a significant effect; also recorded: no significant effect on either behavior”. The “sucrose preference (SP)” value in assay [4] is “no significant effect on either behavior”. In assay [5], the “time mobile / mobility” value is given as “significant effect of ketanserin” and the total distance travelled result is reported as “main effect of ketanserin”. Besides, the “time mobile / mobility” value in assay [5] (listed as Ketanserin) was “significant increase in mobility”. For the same compound, in assay [6] (healthy subjects), the “acute psilocybin-induced changes in processing of negative emotional stimuli” value was “prevented”. For the same compound, the “psilocybin-induced self-reported perceptual distortions” value in assay [6] (humans, ketanserin block of 5-HT2Rs) was “significantly attenuates self-reported perceptual distortions; also recorded: attenuates psilocybin-induced perceptual alterations”.
